# Test results as given in US8916567B2, “Certain crystalline hydrates, pharmaceutical compositions thereof and methods for preparation and use thereof” (Universal Technology Alliance, Inc., priority 2009, dated 2014).
# Read-outs that look alike come from different tables or passages of the source.
# Tests used:
# Type in all cases: cell-based
# E. feacalis = assay: Minimum inhibitory concentration (MIC) in vitro, agar dilution method
# From the text: (§1) Hydrates Samples: • The 1/2 hydrates prepared according to Example 2; • Content (purity % wt): 99.0%; • The 1/12 hydrates prepared according to Example 253; • Content (purity % wt): 98.9%; • The 2/7 hydrates prepared according to Example 106; • Content (purity % wt): 98.8%; • The 2/5 hydrates prepared according to Example 162; • Content (purity % wt): 99.0%; • The 3/4 hydrates prepared according to Example 337; • Content (purity % wt): 98.8%; • Preparation: dissolved in DMSO, and further diluted with sterile distilled water to desired concentration. • The hydrates samples were supplied by Sichuan Beilike Biotechnology LTD.
# (§2) Anhydrous Sample: • The anhydrous compounds prepared according to Example 1. • Content (purity % wt): 98.6%; • Preparation: dissolved in DMSO, and further diluted with sterile distilled water to desired concentration; • The anhydrous sample was supplied by Sichuan Beilike Biotechnology LTD.
# (§3) Control Samples • Vancomycin: provided by Sichuan Beilike Biotechnology LTD, purchased from Eli Lilly Japan K.K. • Lot No.: WM16151 (production date: Apr. 10, 2007, expiration date: Apr. 9, 2009). • Specification: 500 mg/bottle; solubility (physicochemical properties): soluble in water. • Linezolid (LZ): provided by Sichuan Beilike Biotechnology LTD.
# (§4) Bacteria Strains • Clinically isolated strains: clinically isolated bacterial pathogens collected in Sichuan and Beijing areas from March 2007 to May 2008. • Species include: Staphylococcus aureus MRSA, Staphylococcus aureus MSSA, S. epidermidis MRSE, S. epidermidis MSSE, E. feacalis, and E. feacium, a total of 51 strains. • Quality control strains: Staphylococcus aureus […] strain kept in Sichuan Industrial Institute of Antibiotics, purchased from the medical testing center of the Ministry of Health, China.
# (§5) Experimental Method: • Measurement of the minimum inhibitory concentration (MIC) in vitro: • The minimum inhibitory concentration (MIC) of each test sample against test strains was measured by using the agar dilution method recommended by the U.S. National Committee for Clinical Laboratory Standards (CLSI/NCCIs).
# (§6) Based on the CLSI/NCCL's testing standard with respect to vancomycin and linezolid (see Table 6), the minimum inhibitory concentration (MIC) values of every strain were reported, and the MIC50 (the concentration that inhibits 50% of the different strains of bacteria), MIC90 (the concentration that inhibits 90% of the different strains of bacteria), and MICrange (the range of the MIC value of the tested strains) were observed.
# E. feacium = assay: as above
# From the text: as §1, §2, §3, §4, §5, §6
# S. epidermidis MRSE = assay: as above; details: for MIC: read-out: MIC
# From the text: as §1, §2, §3, §4, §5, §6
# S. epidermidis MSSE = assay: as above; details: for MIC: read-out: MIC
# From the text: as §1, §2, §3, §4, §5, §6
# [1] = test system: Staphylococcus aureus MRSA; assay: as above; details: for MIC: read-out: MIC
# From the text: as §1, §2, §3, §4, §5, §6
# [2] = test system: Staphylococcus aureus MSSA; assay: as above; details: for MIC: read-out: MIC
# From the text: as §1, §2, §3, §4, §5, §6
# Staphylococcus aureus = assay: Minimum inhibitory concentration (MIC) in vitro, agar dilution method, quality control strain; details: Staphylococcus aureus, ATCC27853, strain S. AT C C25923 (Table 7 No. 1); read-out: MIC
# From the text: as §1, §2, §3, §4, §5, §6
structure (smiles),measurement,setting,value
"CC(=O)NC[C@H]1CN(c2ccc(N3CCOCC3)c(F)c2)C(=O)O1 [Linezolid, reference compound]",MIC50,E. feacalis,1 µg/mL
same,MIC90,E. feacalis,2 µg/mL
same,MICrange,"E. feacalis; E. feacalis (5 strains), clinically isolated",1 to 2 µg/mL
same,MIC,E. feacalis; strain Efa 54 (Table 8 No. 20),1 µg/mL
same,MIC,E. feacalis; strain Efa 116 (Table 8 No. 16),1 µg/mL
same,MIC,E. feacalis; strain Efa 907 (Table 8 No. 19),1 µg/mL
same,MIC,E. feacalis; strain Efa 3006 (Table 8 No. 18),1 µg/mL
same,MIC,E. feacalis; strain Efa 33748 (Table 8 No. 17),2 µg/mL
same,MIC50,E. feacium,2 µg/mL
same,MIC90,E. feacium,4 µg/mL
same,MICrange,"E. feacium; E. feacium (5 strains), clinically isolated",1 to 4 µg/mL
same,MIC,E. feacium; strain Efm 98 (Table 8 No. 21),1 µg/mL
same,MIC,E. feacium; strain Efm 171 (Table 8 No. 25),2 µg/mL
same,MIC,E. feacium; strain Efm 197 (Table 8 No. 22),2 µg/mL
same,MIC,E. feacium; strain Efm N3 (Table 8 No. 23),1 µg/mL
same,MIC,E. feacium; strain Efm N4 (Table 8 No. 24),4 µg/mL
same,MICrange,"S. epidermidis MRSE; S. ep MRSE (10 strains), clinically isolated",0.5 to 2 µg/mL
same,MIC50,"S. epidermidis MRSE; Staphylococcus epidermidis, MRSE, S. ep MRSE (10 strains), clinically isolated, read-out: MIC50",1 µg/mL
same,MIC90,"S. epidermidis MRSE; Staphylococcus epidermidis, MRSE, S. ep MRSE (10 strains), clinically isolated, read-out: MIC90",2 µg/mL
same,MIC,"S. epidermidis MRSE; Staphylococcus epidermidis, MRSE, strain S. ep MRSE4 (Table 8 No. 9)",1 µg/mL
same,MIC,"S. epidermidis MRSE; Staphylococcus epidermidis, MRSE, strain S. ep MRSE20 (Table 8 No. 6)",1 µg/mL
same,MIC,"S. epidermidis MRSE; Staphylococcus epidermidis, MRSE, strain S. ep MRSE87 (Table 8 No. 13)",2 µg/mL
same,MIC,"S. epidermidis MRSE; Staphylococcus epidermidis, MRSE, strain S. ep MRSE90 (Table 8 No. 10)",2 µg/mL
same,MIC,"S. epidermidis MRSE; Staphylococcus epidermidis, MRSE, strain S. ep MRSE101 (Table 8 No. 7)",0.5 µg/mL
same,MIC,"S. epidermidis MRSE; Staphylococcus epidermidis, MRSE, strain S. ep MRSE105 (Table 8 No. 11)",1 µg/mL
same,MIC,"S. epidermidis MRSE; Staphylococcus epidermidis, MRSE, strain S. ep MRSE140 (Table 8 No. 14)",1 µg/mL
same,MIC,"S. epidermidis MRSE; Staphylococcus epidermidis, MRSE, strain S. ep MRSE142 (Table 8 No. 12)",1 µg/mL
same,MIC,"S. epidermidis MRSE; Staphylococcus epidermidis, MRSE, strain S. ep MRSE210 (Table 8 No. 15)",1 µg/mL
same,MIC,"S. epidermidis MRSE; Staphylococcus epidermidis, MRSE, strain S. ep MRSE211 (Table 8 No. 8)",1 µg/mL
same,MICrange,"S. epidermidis MSSE; S. ep MSSE (10 strains), clinically isolated",0.5 to 2 µg/mL
same,MIC50,"S. epidermidis MSSE; Staphylococcus epidermidis, S. ep MSSE (10 strains), clinically isolated, read-out: MIC50",1 µg/mL
same,MIC90,"S. epidermidis MSSE; Staphylococcus epidermidis, S. ep MSSE (10 strains), clinically isolated, read-out: MIC90",2 µg/mL
same,MIC,"S. epidermidis MSSE; Staphylococcus epidermidis, strain S. ep MSSE87 (Table 7 No. 23)",0.5 µg/mL
same,MIC,"S. epidermidis MSSE; Staphylococcus epidermidis, strain S. ep MSSE88 (Table 8 No. 5)",2 µg/mL
same,MIC,"S. epidermidis MSSE; Staphylococcus epidermidis, strain S. ep MSSE113 (Table 7 No. 24)",1 µg/mL
same,MIC,"S. epidermidis MSSE; Staphylococcus epidermidis, strain S. ep MSSE116 (Table 7 No. 25)",0.5 µg/mL
same,MIC,"S. epidermidis MSSE; Staphylococcus epidermidis, strain S. ep MSSE118 (Table 8 No. 2)",2 µg/mL
same,MIC,"S. epidermidis MSSE; Staphylococcus epidermidis, strain S. ep MSSE119 (Table 7 No. 27)",1 µg/mL
same,MIC,"S. epidermidis MSSE; Staphylococcus epidermidis, strain S. ep MSSE137 (Table 8 No. 4)",2 µg/mL
same,MIC,"S. epidermidis MSSE; Staphylococcus epidermidis, strain S. ep MSSE140 (Table 8 No. 3)",2 µg/mL
same,MIC,"S. epidermidis MSSE; Staphylococcus epidermidis, strain S. ep MSSE142 (Table 7 No. 26)",1 µg/mL
same,MIC,"S. epidermidis MSSE; Staphylococcus epidermidis, strain S. ep MSSE153 (Table 8 No. 1)",1 µg/mL
same,MICrange,"[1]; S. MRSA (10 strains), clinically isolated",1 to 2 µg/mL
same,MIC50,"[1]; Staphylococcus aureus, MRSA, S. MRSA (10 strains), clinically isolated, read-out: MIC50",2 µg/mL
same,MIC90,"[1]; Staphylococcus aureus, MRSA, S. MRSA (10 strains), clinically isolated, read-out: MIC90",2 µg/mL
same,MIC,"[1]; Staphylococcus aureus, MRSA, strain S. MRSA 29 (Table 7 No. 15)",1 µg/mL
same,MIC,"[1]; Staphylococcus aureus, MRSA, strain S. MRSA 101 (Table 7 No. 14)",1 µg/mL
same,MIC,"[1]; Staphylococcus aureus, MRSA, strain S. MRSA 201 (Table 7 No. 13)",2 µg/mL
same,MIC,"[1]; Staphylococcus aureus, MRSA, strain S. MRSA B27 (Table 7 No. 21)",2 µg/mL
same,MIC,"[1]; Staphylococcus aureus, MRSA, strain S. MRSA B105 (Table 7 No. 17)",2 µg/mL
same,MIC,"[1]; Staphylococcus aureus, MRSA, strain S. MRSA B143 (Table 7 No. 19)",1 µg/mL
same,MIC,"[1]; Staphylococcus aureus, MRSA, strain S. MRSA B151 (Table 7 No. 20)",2 µg/mL
same,MIC,"[1]; Staphylococcus aureus, MRSA, strain S. MRSA B164 (Table 7 No. 16)",2 µg/mL
same,MIC,"[1]; Staphylococcus aureus, MRSA, strain S. MRSA B199 (Table 7 No. 22)",2 µg/mL
same,MIC,"[1]; Staphylococcus aureus, MRSA, strain S. MRSA B617 (Table 7 No. 18)",1 µg/mL
same,MICrange,"[2]; S. MSSA (11 strains), clinically isolated",1 to 2 µg/mL
same,MIC50,"[2]; Staphylococcus aureus, MSSA, S. MSSA (11 strains), clinically isolated, read-out: MIC50",2 µg/mL
same,MIC90,"[2]; Staphylococcus aureus, MSSA, S. MSSA (11 strains), clinically isolated, read-out: MIC90",2 µg/mL
same,MIC,"[2]; Staphylococcus aureus, MSSA, strain S. MSSA 123 (Table 7 No. 3)",2 µg/mL
same,MIC,"[2]; Staphylococcus aureus, MSSA, strain S. MSSA 187 (Table 7 No. 7)",2 µg/mL
same,MIC,"[2]; Staphylococcus aureus, MSSA, strain S. MSSA 195 (Table 7 No. 6)",2 µg/mL
same,MIC,"[2]; Staphylococcus aureus, MSSA, strain S. MSSA 195 (Table 7 No. 12)",2 µg/mL
same,MIC,"[2]; Staphylococcus aureus, MSSA, strain S. MSSA 201 (Table 7 No. 11)",2 µg/mL
same,MIC,"[2]; Staphylococcus aureus, MSSA, strain S. MSSA 232 (Table 7 No. 2)",2 µg/mL
same,MIC,"[2]; Staphylococcus aureus, MSSA, strain S. MSSA 275 (Table 7 No. 10)",2 µg/mL
same,MIC,"[2]; Staphylococcus aureus, MSSA, strain S. MSSA 466 (Table 7 No. 8)",1 µg/mL
same,MIC,"[2]; Staphylococcus aureus, MSSA, strain S. MSSA 519 (Table 7 No. 9)",2 µg/mL
same,MIC,"[2]; Staphylococcus aureus, MSSA, strain S. MSSA 520 (Table 7 No. 4)",2 µg/mL
same,MIC,"[2]; Staphylococcus aureus, MSSA, strain S. MSSA 580 (Table 7 No. 5)",2 µg/mL
same,MIC,Staphylococcus aureus,2 µg/mL
